Measured values from patent US20210169080A1, “HETEROCYCLE DERIVATIVES AS PESTICIDES” (Bayer Aktiengesellschaft, priority 2018, published 2021).

Columns and labels:
[1] = log P by reversed-phase HPLC (EEC Directive 79/831 Annex V.A8), acidic method; assay type: physicochemical; conditions: HPLC on reversed-phase C18, acidic range, formic acid in water/acetonitrile; for chromatographic logP: reversed-phase C18 HPLC column
Method: The log P values were determined according to EEC Directive 79/831 Annex V.A8 by HPLC (high-performance liquid chromatography) on a reversed-phase column (C18) using the following methods: ^[a] […] Calibration was carried out using a homologous series of straight-chain alkan-2-ones (having 3 to 16 carbon atoms) with known log P values. The values between successive alkanones are determined by linear regression.

[2] = test system: Ctenocephalides felis; assay: Ctenocephalides felis oral test; assay type: in vivo; conditions: 100 ppm in citrated cattle blood, adult cat fleas, after 2 days
Method: Solvent: dimethyl sulfoxide To produce a suitable active compound formulation, 10 mg of active compound are mixed with 0.5 ml of dimethyl sulfoxide. Dilution with citrated cattle blood gives the desired concentration. About 20 unfed adult cat fleas (Ctenocephalides felis) are placed into a chamber which is closed at the top and bottom with gauze. A metal cylinder whose bottom end is closed with parafilm is placed onto the chamber. The cylinder contains the blood/active compound formulation, which can be imbibed by the fleas through the parafilm membrane. After 2 days, the kill in % is determined. 100% means that all of the fleas have been killed; 0% means that none of the fleas have been killed.

[3] = test system: Myzus persicae; assay: Myzus persicae oral test; assay type: in vivo; conditions: 4 ppm, oral uptake through parafilm, after 5 days
Method: [table] To produce a suitable active compound formulation, 1 part by weight of active compound is dissolved with the stated parts by weight of solvent and made up to the desired concentration with water. 50 μl of the active compound formulation are transferred into microtitre plates and made up to a final volume of 200 μl with 150 μl of IPL41 insect medium (33%+15% sugar). Subsequently, the plates are sealed with parafilm, which a mixed population of green peach aphids (Myzus persicae) within a second microtitre plate is able to puncture and imbibe the solution. After 5 days, the efficacy in % is determined. 100% means that all the aphids have been killed; 0% means that no aphids have been killed.

[4] = test system: Phaedon cochleariae; assay: Phaedon cochleariae spray test; assay type: in vivo; conditions: 100 g/ha, sprayed Chinese cabbage leaf discs, after 7 days
Method: (§1) [table] To produce a suitable active compound formulation, 1 part by weight of active compound is dissolved with the specified parts by weight of solvent and made up to the desired concentration with water containing an emulsifier concentration of 1000 ppm. To produce further test concentrations, the formulation is diluted with emulsifier-containing water. Discs of Chinese cabbage leaves (Brassica pekinensis) are sprayed with an active compound formulation of the desired concentration and, after drying, populated with larvae of the mustard beetle (Phaedon cochleariae). After 7 days, the efficacy in % is determined. 100% means that all the beetle larvae have been killed; 0% means that no beetle larvae have been killed.

[5] = test system: Spodoptera frugiperda; assay: Spodoptera frugiperda spray test; assay type: in vivo; conditions: 100 g/ha, sprayed maize leaf discs, after 7 days
Method: as §1, with “water. Leaf discs” for “water. Discs”, “of maize (Zea mays)” for “of Chinese cabbage leaves (Brassica pekinensis)”, “with caterpillars” for “with larvae”, “the fall armyworm (Spodoptera frugiperda).” for “the mustard beetle (Phaedon cochleariae).”, “the caterpillars” for “the beetle larvae”, “no caterpillar has” for “no beetle larvae have”

[6] = test system: Ctenocephalides felis; assay: Ctenocephalides felis in vitro contact test with adult cat fleas; assay type: in vivo; conditions: application rate 5 μg/cm^2 (=500 g/ha), after 48 h
Method: For the coating of the test tubes, 9 mg of active compound are first dissolved in 1 ml of acetone p.a. and then diluted to the desired concentration with acetone p.a. 250 μl of the solution are distributed homogeneously on the inner walls and the base of a 25 ml glass tube by turning and rocking on an orbital shaker (rocking rotation at 30 rpm for 2 h). With 900 ppm of active compound solution and internal surface area 44.7 cm^2, given homogeneous distribution, an area-based dose of 5 μg/cm^2 is achieved. After the solvent has evaporated off, the tubes are populated with 5-10 adult cat fleas (Ctenocephalides felis), sealed with a perforated plastic lid and incubated in a horizontal position at room temperature and ambient humidity. After 48 h, efficacy is determined. To this end, the tubes are stood upright and the fleas are knocked to the base of the tube. Fleas which remain motionless at the base or move in an uncoordinated manner are considered to be dead or moribund. […] 100% efficacy means that all the fleas were dead or moribund. 0% efficacy means that no fleas were harmed.

[7] = test system: Rhipicephalus sanguineus; assay: Rhipicephalus sanguineus in vitro contact test with adult brown dog ticks; assay type: in vivo; conditions: application rate 5 μg/cm^2 (=500 g ai/ha), after 48 h
Method: For the coating of the test tubes, 9 mg of active compound are first dissolved in 1 ml of acetone p.a. and then diluted to the desired concentration with acetone p.a. 250 μl of the solution are distributed homogeneously on the inner walls and the base of a 25 ml glass tube by turning and rocking on an orbital shaker (rocking rotation at 30 rpm for 2 h). With 900 ppm of active compound solution and internal surface area 44.7 cm^2, given homogeneous distribution, an area-based dose of 5 μg/cm^2 is achieved. After the solvent has evaporated off, the tubes are populated with 5-10 adult dog ticks (Rhipicephalus sanguineus), sealed with a perforated plastic lid and incubated in a horizontal position in the dark at room temperature and ambient humidity. After 48 h, efficacy is determined. To this end, the ticks are knocked to the base of the tube and incubated on a hotplate at 45-50° C. for not more than 5 min. Ticks which remain motionless on the base or move in such an uncoordinated manner that they are unable to deliberately avoid the heat by climbing upwards are considered to be dead or moribund. […] An efficacy of 100% means that all the ticks were dead or moribund. 0% efficacy means that none of the ticks were harmed.

[8] = test system: Boophilus microplus; assay: Boophilus microplus injection test; assay type: in vivo; conditions: 20 μg/animal injected into abdomen of engorged adult female cattle ticks, assessed after 7 days
Method: Solvent: dimethyl sulfoxide To produce a suitable active compound formulation, 10 mg of active compound are mixed with 0.5 ml of solvent and the concentrate is diluted to the desired concentration with solvent. 1 μl of the active compound solution is injected into the abdomen of 5 engorged adult female cattle ticks (Boophilus microplus). The animals are transferred into dishes and kept in a climate-controlled room. The activity is assessed after 7 days by laying of fertile eggs. Eggs which are not visibly fertile are stored in a climate-controlled cabinet until the larvae hatch after about 42 days. An efficacy of 100% means that none of the ticks has laid any fertile eggs; 0% means that all the eggs are fertile.

[9] = test system: Myzus persicae; assay: Myzus persicae spray test; assay type: in vivo; conditions: 100 g/ha, sprayed Chinese cabbage leaf discs, after 5 days
Method: as §1, with “pekinensis) infested by all stages of the green peach aphid (Myzus persicae)” for “pekinensis)”, “concentration.” for “concentration and, after drying, populated with larvae of the mustard beetle (Phaedon cochleariae).”, “5” for “7”, “aphids” for “beetle larvae”

[10] = test system: Diabrotica balteata; assay: Diabrotica balteata spray test; assay type: in vivo; conditions: 160 μg/cavity, germinated wheat corns infested with beetle larvae, after 7 days
Method: [table] To produce a suitable active compound formulation, 1 part by weight of active compound is dissolved with the specified parts by weight of solvent and made up to the desired concentration with water containing an emulsifier concentration of 1000 ppm. To produce further test concentrations, the formulation is diluted with emulsifier-containing water. Pre-swollen wheat corns (Triticum aestivum) are incubated for one day in a multiwell plate filled with agar and a little water (5 seed corns per cavity). The germinated wheat corns are sprayed with an active compound formulation of the desired concentration. Subsequently, each cavity is infested with 10-20 Diabrotica balteata beetle larvae. After 7 days, the efficacy in % is determined. 100% means that all wheat plants have grown as in the untreated uninfested control; 0% means that no wheat plant has grown.

Row | Structure (SMILES) | chromatographic logP [1] | efficacy (kill in %) [2] [%] | efficacy (aphids killed) [3] [%] | efficacy (beetle larvae killed) [4] [%] | efficacy (caterpillars killed) [5] [%] | log P (acidic) [1] | efficacy (fleas dead or moribund) [6] [%] | efficacy (ticks dead or moribund) [7] [%] | efficacy (no laying of fertile eggs) [8] [%] | efficacy (aphids killed) [9] [%] | efficacy (wheat plants grown as in uninfested control) [10] [%]
1 | CCS(=O)(=O)c1c(-c2nc3cc(S(=O)(=O)C(F)(F)F)ccc3o2)nc2cc(C3(C#N)CC3)ccn12 [Example 1-1, 1-[3-(Ethylsulfonyl)-2-{5-[(trifluoromethyl)sulfonyl]-1,3-benzoxazol-2-yl}imidazo-[1,2-a]pyridin-7-yl]cyclopropanecarbonitrile] | 3.18 | 95 | 100 | 100 | 100 | – | – | – | – | – | –
2 | CCS(=O)(=O)c1c(-c2nc3cc(C(F)(F)F)ccc3o2)nc2cc(C3(C#N)CC3)ccn12 [Example 1-4] | 3.22 | – | – | 100 | 100 | – | – | – | – | – | –
3 | CCS(=O)(=O)c1c(-c2nc3cc(C(F)(F)C(F)(F)F)ccc3o2)nc2cc(C3(C#N)CC3)ccn12 [Example 1-6, 1-[3-Ethylsulfonyl-2-[5-(l, 1,2,2,2-pentafluoroethyl)-1,3-benzoxazol-2-yl]imidazo [1,2-a]pyridin-7-yl]cyclopropanecarbonitrile] | – | – | – | – | – | 3.68 | – | – | – | – | –
4 | CCS(=O)(=O)c1c(-c2nc3cc(SC(F)(F)F)ccc3o2)nc2cc(C3(C#N)CC3)ccn12 [Example 1-3, 1-[3-(Ethylsulfonyl)-2-{5-[(trifluoromethyl)sulfanyl]-1,3-benzoxazol-2-yl}imidazo-[1,2-a]pyridin-7-yl]cyclopropanecarbonitrile] | 3.63 | 100 | – | 100 | 100 | – | 100 | 80 | 90 | – | –
5 | CCS(=O)(=O)c1c(-c2nc3cc([S+]([O-])C(F)(F)F)ccc3o2)nc2cc(C3(C#N)CC3)ccn12 (stereo not shown) [Example 1-2, 1-[3-(ethylsulfonyl)-2-{5-[(trifluoromethyl)sulfinyl]-1,3-benzoxazol-2-yl}imidazo[1,2-a]pyridin-7-yl]cyclo-propanecarbonitrile] | 2.67 | 100 | 100 | 100 | 100 | – | – | – | – | 100 | –
6 | CCS(=O)(=O)c1c(-c2nc3cc(OC(F)(F)F)ccc3o2)nc2cc(C3(C#N)CC3)ccn12 [Example 1-5, 1-[3-Ethylsulfonyl-2-[5-(trifluoromethoxy)-1,3-benzoxazol-2-yl]imidazo[1,2-a]pyridin-7-yl]cyclopropanecarbonitrile] | 3.29 | – | – | – | 83 | – | – | – | – | – | 100
